For six compounds, IC50 results are on record in ChEMBL document CHEMBL1138037, “Novel sst2-selective somatostatin agonists. Three-dimensional consensus structure by NMR” (J Med Chem, 2006).

The structures appear in SMILES notation. Positions of bridges follow the written chain, without caps; N, C: chain ends. Non-standard residues stand in square brackets, D forms with d. Residues, ends and D or L forms follow the SMILES beside them.

Experiment [1] concerns the target Somatostatin receptor type 1 (Homo sapiens, UniProt P30872). Put plainly: Inhibition of [125I](Leu8,DTrp22,Tyr25)-SRIF28 binding to human sst1.
Experiment [2] has as its target Somatostatin receptor type 2 (Homo sapiens, UniProt P30874). Put plainly: Inhibition of [125I](Leu8,DTrp22,Tyr25)-SRIF28 binding to human sst2.
Experiment [3] addresses Somatostatin receptor type 3 (Homo sapiens, UniProt P32745). Put plainly: Inhibition of [125I](Leu8,DTrp22,Tyr25)-SRIF28 binding to human sst3.
Experiment [4] addresses Somatostatin receptor type 4 (Homo sapiens, UniProt P31391). Put plainly: Inhibition of [125I](Leu8,DTrp22,Tyr25)-SRIF28 binding to human sst4.
Experiment [5] deals with Somatostatin receptor type 5 (Homo sapiens, UniProt P35346). Kind of experiment: Inhibition of [125I](Leu8,DTrp22,Tyr25)-SRIF28 binding to human sst5.
Sequence of Somatostatin receptor type 5 (P35346 whole entry): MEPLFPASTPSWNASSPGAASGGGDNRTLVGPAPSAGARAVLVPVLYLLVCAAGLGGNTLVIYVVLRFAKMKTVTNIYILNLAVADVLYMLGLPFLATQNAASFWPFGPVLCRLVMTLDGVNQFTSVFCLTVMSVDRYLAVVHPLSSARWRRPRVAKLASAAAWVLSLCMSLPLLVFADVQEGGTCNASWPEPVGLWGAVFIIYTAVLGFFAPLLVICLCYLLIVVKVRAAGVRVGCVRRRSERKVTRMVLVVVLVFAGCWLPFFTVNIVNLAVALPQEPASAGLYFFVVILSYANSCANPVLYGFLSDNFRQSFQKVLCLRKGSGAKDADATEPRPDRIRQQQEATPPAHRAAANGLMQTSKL

Sequence of Somatostatin receptor type 3 (P32745 whole entry): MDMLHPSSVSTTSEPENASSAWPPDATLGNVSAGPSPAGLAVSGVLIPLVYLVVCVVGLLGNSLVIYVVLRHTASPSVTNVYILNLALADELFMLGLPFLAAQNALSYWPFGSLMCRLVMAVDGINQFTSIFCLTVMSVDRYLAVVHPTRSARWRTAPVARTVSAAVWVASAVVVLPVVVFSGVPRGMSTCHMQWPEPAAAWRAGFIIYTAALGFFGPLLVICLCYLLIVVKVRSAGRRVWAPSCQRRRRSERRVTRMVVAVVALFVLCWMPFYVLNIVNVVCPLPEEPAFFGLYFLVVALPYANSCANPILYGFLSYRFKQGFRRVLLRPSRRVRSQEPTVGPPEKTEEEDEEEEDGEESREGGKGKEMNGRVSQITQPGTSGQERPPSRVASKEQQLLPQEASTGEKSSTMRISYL
Sequence of Somatostatin receptor type 1 (P30872 whole entry): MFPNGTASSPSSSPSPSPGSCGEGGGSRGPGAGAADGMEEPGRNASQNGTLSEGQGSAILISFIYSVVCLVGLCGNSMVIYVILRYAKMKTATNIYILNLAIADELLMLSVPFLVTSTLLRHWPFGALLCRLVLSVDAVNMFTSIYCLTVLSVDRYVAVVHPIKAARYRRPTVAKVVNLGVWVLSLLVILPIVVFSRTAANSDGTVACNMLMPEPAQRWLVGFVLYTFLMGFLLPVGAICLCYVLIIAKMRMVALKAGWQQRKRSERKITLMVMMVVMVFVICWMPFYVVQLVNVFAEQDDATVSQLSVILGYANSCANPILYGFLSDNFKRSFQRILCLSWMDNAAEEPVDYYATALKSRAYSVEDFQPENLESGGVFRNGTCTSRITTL
Sequence of Somatostatin receptor type 4 (P31391 whole entry): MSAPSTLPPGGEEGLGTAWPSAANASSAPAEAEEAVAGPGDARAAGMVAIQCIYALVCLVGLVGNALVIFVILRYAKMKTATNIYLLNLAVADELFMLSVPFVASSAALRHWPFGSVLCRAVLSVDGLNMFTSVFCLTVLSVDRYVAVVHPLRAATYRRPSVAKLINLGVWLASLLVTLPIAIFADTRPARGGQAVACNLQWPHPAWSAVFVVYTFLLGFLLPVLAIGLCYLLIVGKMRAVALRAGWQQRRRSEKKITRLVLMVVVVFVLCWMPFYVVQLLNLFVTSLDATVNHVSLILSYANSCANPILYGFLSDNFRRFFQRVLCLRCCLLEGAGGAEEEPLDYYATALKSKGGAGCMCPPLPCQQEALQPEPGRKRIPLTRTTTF
Sequence of Somatostatin receptor type 2 (P30874 whole entry): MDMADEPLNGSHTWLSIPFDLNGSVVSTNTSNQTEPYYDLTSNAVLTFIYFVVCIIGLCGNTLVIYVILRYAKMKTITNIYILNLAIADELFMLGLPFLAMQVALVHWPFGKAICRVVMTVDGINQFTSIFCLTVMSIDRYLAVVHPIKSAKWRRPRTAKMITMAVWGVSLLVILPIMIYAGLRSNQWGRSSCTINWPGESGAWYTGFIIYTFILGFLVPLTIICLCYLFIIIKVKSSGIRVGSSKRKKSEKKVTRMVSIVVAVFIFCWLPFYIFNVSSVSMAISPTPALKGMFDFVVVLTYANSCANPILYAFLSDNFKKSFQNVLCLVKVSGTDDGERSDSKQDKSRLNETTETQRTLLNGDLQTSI

For `C[C@@H](O)[C@H](NC(=O)[C@@H]1CSSC[C@H](NC(=O)[C@H](N)Cc2ccccc2)C(=O)N[C@@H](Cc2ccccc2)C(=O)N[C@H](Cc2c[nH]c3ccccc23)C(=O)N[C@@H](CCCCN)C(=O)N[C@@H]([C@@H](C)O)C(=O)N1)C(N)=O`, the IC50 in experiment [1] is over 1000 nM; in experiment [2], 2.2 nM; in experiment [3], 38 nM; in experiment [4], over 10000 nM.

`CONC(=O)Nc1ccc(C[C@@H]2NC(=O)[C@@H](NC(=O)[C@@H](Cc3ccccc3)NC(N)=O)CSSC[C@@H](C(=O)N[C@H](C(N)=O)[C@@H](C)O)NC(=O)[C@H]([C@@H](C)O)NC(=O)[C@H](CCCCN)NC(=O)[C@@H](Cc3c[nH]c4ccccc34)NC2=O)cc1`: the 50% inhibitory concentration (IC50) is over 1000 nM in experiment [1]; 3.1 nM in experiment [2]; 958 nM in experiment [3]; 539 nM in experiment [5]; over 1000 nM in experiment [4].

Regarding `C[C@@H](O)[C@@H]1NC(=O)[C@H](CCCCN)NC(=O)[C@@H](Cc2c[nH]c3ccccc23)NC(=O)[C@H](Cc2ccccc2)NC(=O)[C@@H](N)CSSC[C@@H](C(=O)O)NC1=O` (H-CF[dW]KTC-OH; disulfide 1-6), the IC50 in experiment [1] was over 1000 nM; in experiment [2], 378 nM; in experiment [3], over 1000 nM; in experiment [5], over 1000 nM; in experiment [4], over 1000 nM.

On to `C[C@@H](O)[C@H](NC(=O)[C@@H]1CSSC[C@H](NC(=O)[C@@H](Cc2ccccc2)NC(N)=O)C(=O)N[C@@H](Cc2ccc(NC(N)=O)cc2)C(=O)N[C@H](Cc2c[nH]c3ccccc23)C(=O)N[C@@H](CCCCN)C(=O)N[C@@H]([C@@H](C)O)C(=O)N1)C(N)=O`, for which the IC50 is over 1000 nM in experiment [1], 6.2 nM in experiment [2], 210 nM in experiment [3] and 77 nM in experiment [5].

On to `C[C@@H]1NC(=O)[C@@H](NC(=O)[C@H](N)Cc2ccccc2)CSSC[C@@H](C(=O)N[C@H](C(N)=O)[C@@H](C)O)NC(=O)[C@H]([C@@H](C)O)NC(=O)[C@H](CCCCN)NC(=O)[C@@H](Cc2c[nH]c3ccccc23)NC1=O`, for which the IC50 in experiment [1] was over 1000 nM; in experiment [2] it was 3.6 nM; in experiment [3], 543 nM; in experiment [5] it was 158 nM; in experiment [4] it was over 1000 nM.

As for `C[C@@H](O)[C@H](NC(=O)[C@@H]1CSSC[C@H](NC(=O)[C@H](Cc2ccccc2)NC(N)=O)C(=O)N[C@@H](Cc2ccc(NC(N)=O)cc2)C(=O)N[C@H](Cc2c[nH]c3ccccc23)C(=O)N[C@@H](CCCCN)C(=O)N[C@@H]([C@@H](C)O)C(=O)N1)C(N)=O`, the IC50 is over 1000 nM in experiment [1], 7.5 nM in experiment [2], 942 nM in experiment [3] and 109 nM in experiment [5].

As a reminder, the IC50 is the concentration needed to halve the response being measured. Read a high IC50 as lower potency.
